Assay results as given in patent US10676518B1, “A4B2 nicotinic acetylcholine receptors with reduced or increased nicotine sensitivity and transgenic mouse model for the same” (University of Puerto Rico, priority 2015, dated 2020).
Marks after values point to notes of the source that are not given here.

How the values were obtained:
Type in all cases: cell-based, Rattus norvegicus
[1] = system: α4β2 nAChRs expressed in Xenopus laevis oocytes; assay: Two-electrode voltage clamp, ACh-induced currents in oocytes; design: key to ACh EC50 (μM) / ACh Hill Coef. / ACh Peak Current (nA): (n/f) non-functional; (n/e) no-expression; details: ACh as agonist; for receptor function with ACh / ACh-induced macroscopic peak current compared with WT: in words; for ACh Peak Current (nA) / ACh EC50 (μM): mean ± SEM of 6-17 oocytes; for ACh EC50 (μM): −70 mV
Protocol: (§1) Single point mutations were prepared using the Quickchange™ Site-Directed Mutagenesis Kit (Stratagene, La Jolla, Calif.). The template used for the PCR reaction was the pGEMHE vector with Rattus norvegicus cDNA coding for the α4 neuronal nAChR subunit. DNA was purified using a QIAprep spin miniprep kit (Quiagen, Germantown, Md.) and then sequenced to confirm the incorporation of each mutation. A total of 11 residues in the cytoplasmic loop of the α4 subunit were chosen to be mutated: S364, T417, S438, S469, S471, S490, S504, S516, T536, Y576, and S589. Each residue was mutated to alanine (A) and aspartic acid (D).
(§2) Each subunit encoding mRNA was synthesized in vitro from linearized pGEMHE plasmid templates of Rattus norvegicus cDNA coding for α4 and β2 nAChR subunits using the mMessage mMachine RNA transcription kit (Ambion, Austin, Tex.). mRNA mixtures of α4 and β2 subunits were prepared at 2 μg:3 μg ratio, and 32.2 nL of this mixture was microinjected into each oocyte. The mRNA mixture was microinjected, using a displacement injector (Drummond Instruments, Broomhall, Pa.), into stage V and VI oocytes that had been extracted, incubated in collagenase Type 1A (Sigma, St. Louis, Mo.), and defolliculated by manual dissection. The injected oocytes were incubated at 19° C. for 3-4 days in ND-96 medium supplemented with albumin, gentamicin, tetracycline, and theophyline. Electrophysiological experiments were performed after the third or fourth day of mRNA injection.
(§3) Oocytes injected with the mRNA transcripts of α4 and β2 subunits were characterized using a two-electrode voltage clamp. ACh- and nicotine-induced currents were recorded at 20° C., 3-4 days after mRNA injection, with a GeneClamp 500B Amplifier (Axon Instruments, Foster City, Calif.). […] All the reagents used were purchased from Sigma-Aldrich, Co. (St. Louis, Mo.). For dose-response curves, each oocyte was held at a membrane potential of −70 mV. Membrane currents were digitized using the DigiData 1322A interface (Axon Instruments, Foster City, Calif.), filtered at 2 kHz during recording. The Clampex 10.0 software running on a Pentium 4-based computer was used for data acquisition. Data analysis was via Prism 3.0 (Graphpad Software, San Diego, Calif.). Dose-response data for the α4β2 combination were collected using seven ACh doses (0.1, 1, 3, 10, 30, 100, and a seventh concentration ranging from 300 to 1000 μM depending on the mutant) and seven nicotine concentrations (0.1, 1, 3, 10, 30, 100, 300 μM). The data were fitted using a one-component sigmoidal dose-response equation, Y=I/ImaxBottom+(I/ImaxTop−I/ImaxBottom)/(1+10^((Log EC50−X)×HillSlope)) where X is the logarithm of concentration and Y is the response.
Target sequence in this assay (P09483 31-249 limits assumed): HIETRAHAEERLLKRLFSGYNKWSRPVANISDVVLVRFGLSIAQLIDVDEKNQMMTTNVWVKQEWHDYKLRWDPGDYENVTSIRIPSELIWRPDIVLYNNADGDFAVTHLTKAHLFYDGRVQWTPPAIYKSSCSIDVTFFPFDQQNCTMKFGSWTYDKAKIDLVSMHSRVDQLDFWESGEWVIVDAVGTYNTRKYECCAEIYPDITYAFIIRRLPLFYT
Target sequence in this assay (P12390 25-237 limits assumed, further chain): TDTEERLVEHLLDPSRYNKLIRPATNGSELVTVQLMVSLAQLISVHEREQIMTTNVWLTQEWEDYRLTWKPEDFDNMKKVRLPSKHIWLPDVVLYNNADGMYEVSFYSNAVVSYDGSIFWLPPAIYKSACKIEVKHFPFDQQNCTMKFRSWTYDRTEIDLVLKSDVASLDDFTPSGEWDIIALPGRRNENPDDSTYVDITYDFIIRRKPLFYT

[2] = system: α4β2 nAChRs expressed in Xenopus laevis oocytes; assay: Two-electrode voltage clamp, nicotine-induced currents in oocytes; design: key to Nicotine EC50 (μM) / Nicotine Hill Coef. / Nicotine Peak Current (nA): (n/f) non-functional; (n/e) no-expression; key to Nicotine sensitivity mark of the mutation: Mutations highlighted in green (‡) exhibit hypersensitivity to nicotine; those in red (¶) exhibit agonist selectivity evidenced by their remarkable reductions in sensitivity to nicotine; details: for Nicotine Hill Coef. / Nicotine Peak Current (nA) / Nicotine EC50 (μM) / nicotine-induced macroscopic peak current compared with WT / receptor function with nicotine: nicotine as agonist; for Nicotine Peak Current (nA) / Nicotine EC50 (μM): mean ± SEM of 6-17 oocytes; for Nicotine EC50 (μM): −70 mV; for Nicotine sensitivity mark of the mutation: footnote mark beside the mutation; for nicotine-induced macroscopic peak current compared with WT / receptor function with nicotine: in words
Protocol: as §1, §2, §3
Target sequence in this assay (P09483 31-333 limits assumed): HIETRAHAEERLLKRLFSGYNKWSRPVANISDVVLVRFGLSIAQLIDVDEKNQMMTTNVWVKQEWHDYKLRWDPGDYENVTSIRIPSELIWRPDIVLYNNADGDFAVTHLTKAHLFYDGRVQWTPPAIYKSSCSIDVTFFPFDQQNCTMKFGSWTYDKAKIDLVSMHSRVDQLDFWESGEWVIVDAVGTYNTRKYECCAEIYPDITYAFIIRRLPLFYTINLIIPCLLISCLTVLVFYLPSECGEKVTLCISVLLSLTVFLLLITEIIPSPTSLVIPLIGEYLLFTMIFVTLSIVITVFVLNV
Target sequence in this assay (P12390 25-500, further chain): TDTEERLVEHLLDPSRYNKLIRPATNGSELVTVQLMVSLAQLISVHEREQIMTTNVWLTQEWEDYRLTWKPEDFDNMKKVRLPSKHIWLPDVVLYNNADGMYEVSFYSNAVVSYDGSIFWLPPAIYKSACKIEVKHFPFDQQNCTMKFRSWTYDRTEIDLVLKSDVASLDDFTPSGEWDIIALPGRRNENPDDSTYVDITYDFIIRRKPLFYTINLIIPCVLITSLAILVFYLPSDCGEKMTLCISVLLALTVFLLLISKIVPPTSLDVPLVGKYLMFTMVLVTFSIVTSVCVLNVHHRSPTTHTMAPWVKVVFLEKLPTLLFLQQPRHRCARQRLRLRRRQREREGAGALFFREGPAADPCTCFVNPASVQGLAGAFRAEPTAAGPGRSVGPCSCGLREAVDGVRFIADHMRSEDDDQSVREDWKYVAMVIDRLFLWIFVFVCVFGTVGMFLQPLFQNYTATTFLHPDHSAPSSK

[3] = system: α4β2 nAChRs expressed in Xenopus laevis oocytes; assay: Efficacy of agonist A-85380 versus ACh for subunit stoichiometry determination; details: A-85380 100 nM vs ACh 300 μM; α4β2 mRNA 2:3 ratio
Protocol: To determine whether the α4β2 mutations α4S469Aβ2, α4S471Dβ2, α4T536Aβ2 and α4Y576Aβ2 expressed in Xenopus laevis oocytes assemble in the α4(2):β2(3) or the α4(3):β2(2) stoichiometry, we estimated the efficacy of agonist A-85380 when compared to ACh 300 μM. […] The efficacy of A-85380 in WTα4(2):β2(3) and […] was determined by comparing the macroscopic current elicited by A-85380 100 nM and ACh 300 μM in oocytes microinjected α4β2 mRNA in 1:10 and 10:1 ratios, respectively. The efficacy of A-85380 in α4S469Aβ2, α4S471Dβ2, α4T536Aβ2 and α4Y576Aβ2 was determined by comparing the macroscopic current elicited by A-85380 100 nM and ACh 300 μM in oocytes microinjected α4β2 mRNA in 2:3 ratio. The changes in stoichiometry in these four mutants were assessed by comparing the efficacy of A-85380 in each mutant compared to WTα4(2):β2(3) and WTα4(3):β2(2).

Substance	ACh Hill Coef. [1]	receptor function with ACh [1]	ACh Peak Current (nA) [1]	ACh EC50 (μM) [1]	Nicotine Hill Coef. [2]	Nicotine Peak Current (nA) [2]	Nicotine EC50 (μM) [2]	efficacy of A-85380 compared with WT injected 2:3 or 1:10 ratio [3]	ACh-induced macroscopic peak current compared with WT [1]	Nicotine sensitivity mark of the mutation [2]	nicotine-induced macroscopic peak current compared with WT [2]	Nicotine Peak Current (nA) ([2]; listed as α4S469A)	receptor function with nicotine [2]	Nicotine Peak Current (nA) ([2]; listed as α4S438D)	Nicotine Peak Current (nA) ([2]; listed as WT)
α4S471Aβ2: rat α4β2 nAChR, α4 subunit point mutation S471A, PKA putative phosphorylation site	n/f	non-functional	n/f	n/f	n/f	n/f	n/f	–	–	–	–	–	–	–	–
α4S469Aβ2: rat α4β2 nAChR, α4 subunit point mutation S469A, CKII putative phosphorylation site	0.87	–	2222 ± 413 nA	–	1.84	1552 ± 313 nA	–	no significant difference	no change in the macroscopic peak current	α4S469Aβ2‡	significant increases in the macroscopic peak currents	1552±313	–	–	–
α4S471Dβ2: rat α4β2 nAChR, α4 subunit point mutation S471D, PKA putative phosphorylation site	1.01	–	1039 ± 139 nA	–	2.00	142 ± 313 nA	–	no significant difference	significant decrease in macroscopic peak current	–	significant decrease in the macroscopic peak current	–	functional activation by nicotine	–	–
α4S469Dβ2: rat α4β2 nAChR, α4 subunit point mutation S469D, CKII putative phosphorylation site	n/f	non-functional	n/f	n/f	n/f	n/f	n/f	–	–	–	–	–	non-functional	–	–
α4S438Dβ2: rat α4β2 nAChR, α4 subunit point mutation S438D, CKII putative phosphorylation site	0.68	–	1938 ± 367 nA	–	1.29	2156 ± 475 nA	–	–	no change in the macroscopic peak current	α4S438Dβ2‡	significant increases in the macroscopic peak currents	–	–	2156±475	–
WT α4β2: wild-type rat α4β2 neuronal nicotinic acetylcholine receptor expressed in Xenopus laevis oocytes [reference compound]	1.00	–	2110 ± 243 nA	–	1.80	387 ± 66 nA	–	–	–	–	–	–	–	–	387±66
α4S438Aβ2: rat α4β2 nAChR, α4 subunit point mutation S438A, CKII putative phosphorylation site	0.49	–	97 ± 29 nA	–	n/f	n/f	n/f	–	significant decreases in the macroscopic peak currents	–	–	–	non-functional	–	–
